# Patent US20100137313A1 (ASTRAZENECA AB, priority 2008, published 2010)
# Target: S. pneumoniae Topoisomerase IV ATPase (ParE) (Streptococcus pneumoniae serotype 4, UniProt Q59961)
# Experiment: S. pneumoniae Topoisomerase IV ATPase inhibition
# Assay type: biochemical
# Conditions: values marked * are an average of two or more data points, read-out: % Inh (13 μM) of S. pneumoniae Topoisomerase IV ATPase
# Outline: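 Malachite green/ammonium molybdate phosphate detection, A650. 1.25 nM ParE, 160 μM ATP, sheared salmon sperm DNA 5 μg/ml, 20 mM Tris pH 8.0, 8.0 mM MgCl2. Controls: 2% DMSO = 0%, 20 μM EDTA = 100% inhibition; IC50 over 10 concentrations.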
# Sequence of S. pneumoniae Topoisomerase IV ATPase (ParE) (Q59961 whole entry): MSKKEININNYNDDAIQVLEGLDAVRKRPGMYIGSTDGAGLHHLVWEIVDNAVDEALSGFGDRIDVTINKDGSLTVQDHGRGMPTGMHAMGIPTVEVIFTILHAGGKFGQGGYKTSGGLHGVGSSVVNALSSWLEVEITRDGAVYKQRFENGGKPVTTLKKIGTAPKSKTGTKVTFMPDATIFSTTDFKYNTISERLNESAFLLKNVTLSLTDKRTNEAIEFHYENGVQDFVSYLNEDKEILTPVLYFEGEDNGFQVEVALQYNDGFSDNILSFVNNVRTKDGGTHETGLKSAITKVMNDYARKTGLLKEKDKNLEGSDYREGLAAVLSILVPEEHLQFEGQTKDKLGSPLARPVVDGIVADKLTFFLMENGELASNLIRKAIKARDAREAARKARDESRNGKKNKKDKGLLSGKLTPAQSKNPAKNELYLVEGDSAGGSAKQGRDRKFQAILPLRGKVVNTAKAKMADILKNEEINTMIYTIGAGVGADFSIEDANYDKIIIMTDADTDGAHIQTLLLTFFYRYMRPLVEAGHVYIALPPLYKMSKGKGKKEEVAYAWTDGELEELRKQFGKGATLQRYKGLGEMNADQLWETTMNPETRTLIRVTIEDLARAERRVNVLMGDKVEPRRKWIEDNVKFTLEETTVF
row,SMILES,inhibition at 13 µM [%]
1,"Cc1cc(C(F)F)nn1-c1nc(Nc2ccc(F)c(Cl)c2)ncc1-c1cncc(C(=O)O)c1 [Example 530, 5-{2-[(3-chloro-4-fluorophenyl)amino]-4-[3-(difluoromethyl)-5-methyl-1H-pyrazol-1-yl]pyrimidin-5-yl}pyridine-3-carboxylic acid]",100
2,"Cc1cc(C(F)F)n(-c2nc(Nc3ccc(F)c(Cl)c3)ncc2-c2cncc(C(=O)O)c2)n1 [Example 531, 5-{2-[(3-chloro-4-fluorophenyl)amino]-4-[5-(difluoromethyl)-3-methyl-1H-pyrazol-1-yl]pyrimidin-5-yl}pyridine-3-carboxylic acid]",100
3,"O=C(O)c1cncc(-c2cnc(Nc3ccc(F)c(Cl)c3)nc2-n2nc(C(F)F)cc2C(F)F)c1 [Example 532, 5-{4-[3,5-bis(difluoromethyl)-1H-pyrazol-1-yl]-2-[(3-chloro-4-fluorophenyl)amino]-pyrimidin-5-yl}pyridine-3-carboxylic acid]",100
4,"O=C(O)c1cncc(-c2cnc(Nc3ccc(F)c(Cl)c3)nc2-n2ccc(-c3ccsc3)n2)c1 [Example 533, 5-{2-[(3-chloro-4-fluorophenyl)amino]-4-[3-(thiophen-3-yl)-1H-pyrazol-1-yl]pyrimidin-5-yl}pyridine-3-carboxylic acid]",100
5,"CC(=O)Nc1ccn(-c2nc(Nc3ccc(F)c(Cl)c3)ncc2-c2cncc(C(=O)O)c2)n1 [Example 534, 5-{4-[3-(acetylamino)-1H-pyrazol-1-yl]-2-[(3-chloro-4-fluorophenyl)amino]pyrimidin-5-yl}pyridine-3-carboxylic acid]",49
6,O=C(O)c1cncc(-c2cnc(Nc3ccc(F)c(Cl)c3)nc2-n2cc(-c3ccccn3)cn2)c1 [Example 535],100
7,"O=C(O)c1cncc(-c2cnc(Nc3ccc(F)c(Cl)c3)nc2-n2cc(-c3ccncn3)cn2)c1 [Example 536, 5-{2-[(3-chloro-4-fluorophenyl)amino]-4-[4-(pyrimidin-4-yl)-1H-pyrazol-1-yl]pyrimidin-5-yl}pyridine-3-carboxylic acid]",100
8,"Cc1cc(-c2nccs2)nn1-c1nc(Nc2ccc(F)c(Cl)c2)ncc1-c1cncc(C(N)=O)c1 [Example 537, 5-{2-[(3-chloro-4-fluorophenyl)amino]-4-[5-methyl-3-(1,3-thiazol-2-yl)-1H-pyrazol-1-yl]pyrimidin-5-yl}pyridine-3-carboxamide]",100
9,"Cc1cc(C(F)F)nn1-c1nc(Nc2ccc(F)c(Cl)c2)ncc1-c1cncc(C(N)=O)c1 [Example 538, 5-{2-[(3-chloro-4-fluorophenyl)amino]-4-[3-(difluoromethyl)-5-methyl-1H-pyrazol-1-yl]pyrimidin-5-yl}pyridine-3-carboxamide]",100
10,"NC(=O)c1cncc(-c2cnc(Nc3ccc(F)c(Cl)c3)nc2-n2nc(C(F)F)cc2C(F)F)c1 [Example 539, 5-{4-[3,5-bis(difluoromnethyl)-1H-pyrazol-1-yl]-2-[(3-chloro-4-fluorophenyl)amino]pyrimidin-5-yl}pyridine-3-carboxamide]",100
11,"NC(=O)c1cncc(-c2cnc(Nc3ccc(F)c(Cl)c3)nc2-n2ccc(-c3ccsc3)n2)c1 [Example 540, 5-{2-[(3-chloro-4-fluorophenyl)amino]-4-[3-(thiophen-3-yl)-1H-pyrazol-1-yl]pyrimidin-5-yl}pyridine-3-carboxamide]",100
12,"CC(=O)Nc1ccn(-c2nc(Nc3ccc(F)c(Cl)c3)ncc2-c2cncc(C(N)=O)c2)n1 [Example 541, 5-{4-[3-(acetylamino)-1H-pyrazol-1-yl]-2-[(3-chloro-4-fluorophenyl)amino]pyrimidin-5-yl}pyridine-3-carboxamide]",97
13,NC(=O)c1cncc(-c2cnc(Nc3ccc(F)c(Cl)c3)nc2-n2cc(-c3ccccn3)cn2)c1 [Example 542],85
14,"NC(=O)c1cncc(-c2cnc(Nc3ccc(F)c(Cl)c3)nc2-n2cc(-c3ccncn3)cn2)c1 [Example 543, 5-{2-[(3-chloro-4-fluorophenyl)amino]-4-[4-(pyrimidin-4-yl)-1H-pyrazol-1-yl]pyrimidin-5-yl}pyridine-3-carboxamide]",68
15,"CONC(=O)c1cncc(-c2cnc(Nc3ccc(F)c(Cl)c3)nc2-n2nc(-c3nccs3)cc2C)c1 [Example 545, 5-{2-[(3-chloro-4-fluorophenyl)amino]-4-[5-methyl-3-(1,3-thiazol-2-yl)-1H-pyrazol-1-yl]pyrimidin-5-yl}-N-methoxypyridine-3-carboxamide]",100
16,"CONC(=O)c1cncc(-c2cnc(Nc3ccc(F)c(Cl)c3)nc2-n2nc(C(F)F)cc2C)c1 [Example 546, 5-{2-[(3-chloro-4-fluorophenyl)amino]-4-[3-(difluoromethyl)-5-methyl-1H-pyrazol-1-yl]pyrimidin-5-yl}-N-methoxypyridine-3-carboxamide]",100
17,"CONC(=O)c1cncc(-c2cnc(Nc3ccc(F)c(Cl)c3)nc2-n2nc(C(F)F)cc2C(F)F)c1 [Example 547, 5-{4-[3,5-bis(difluoromethyl)-1H-pyrazol-1-yl]-2-[(3-chloro-4-fluorophenyl)amino]pyrimidin-5-yl}-N-methoxypyridine-3-carboxamide]",71
18,"CONC(=O)c1cncc(-c2cnc(Nc3ccc(F)c(Cl)c3)nc2-n2ccc(-c3ccsc3)n2)c1 [Example 548, 5-{2-[(3-chloro-4-fluorophenyl)amino]-4-[3-(thiophen-3-yl)-1H-pyrazol-1-yl]pyrimidin-5-yl}-N-methoxypyridine-3-carboxamide]",95
19,"CONC(=O)c1cncc(-c2cnc(Nc3ccc(F)c(Cl)c3)nc2-n2ccc(NC(C)=O)n2)c1 [Example 549, 5-{4-[3-(acetylamino)-1H-pyrazol-1-yl]-2-[(3-chloro-4-fluorophenyl)amino]-pyrimidin-5-yl}-N-methoxypyridine-3-carboxamide]",94
20,"CONC(=O)c1cncc(-c2cnc(Nc3ccc(F)c(Cl)c3)nc2-n2cc(-c3ccccn3)cn2)c1 [Example 550, 5-{2-[(3-chloro-4-fluorophenyl)amino]-4-[4-(pyridin-2-yl)-1H-pyrazol-1-yl]pyrimidin-5-yl}-N-methoxypyridine-3-carboxamide]",100
21,"CONC(=O)c1cncc(-c2cnc(Nc3ccc(F)c(Cl)c3)nc2-n2cc(-c3ccncn3)cn2)c1 [Example 551, 5-{2-[(3-chloro-4-fluorophenyl)amino]-4-[4-(pyrimidin-4-yl)-1H-pyrazol-1-yl]pyrimidin-5-yl}-N-methoxypyridine-3-carboxamide]",100
22,"Cc1cc(-c2nccs2)nn1-c1nc(Nc2ccc(F)c(Cl)c2)ncc1-c1cccc(/C=C/C(=O)O)c1 [Example 562, (2E)-3-(3-{2-[(3-chloro-4-fluorophenyl)amino]-4-[5-methyl-3-(1,3-thiazol-2-yl)-1H-pyrazol-1-yl]pyrimidin-5-yl}phenyl)prop-2-enoic acid]",100
23,"Cc1cc(C(F)F)nn1-c1nc(Nc2ccc(F)c(Cl)c2)ncc1-c1cccc(/C=C/C(=O)O)c1 [Example 563, (2E)-3-(3-{2-[(3-chloro-4-fluorophenyl)amino]-4-[3-(difluoromethyl)-5-methyl-1H-pyrazol-1-yl]pyrimidin-5-yl}phenyl)prop-2-enoic acid]",100
24,"O=C(O)/C=C/c1cccc(-c2cnc(Nc3ccc(F)c(Cl)c3)nc2-n2nc(C(F)F)cc2C(F)F)c1 [Example 564, (2E)-3-(3-{4-[3,5-bis(difluoromethyl)-1H-pyrazol-1-yl]-2-[(3-chloro-4-fluorophenyl)amino]pyrimidin-5-yl}phenyl)prop-2-enoic acid]",92
25,"O=C(O)/C=C/c1cccc(-c2cnc(Nc3ccc(F)c(Cl)c3)nc2-n2ccc(-c3ccsc3)n2)c1 [Example 565, (2E)-3-(3-{2-[(3-chloro-4-fluorophenyl)amino]-4-[3-(thiophen-3-yl)-1H-pyrazol-1-yl]pyrimidin-5-yl}phenyl)prop-2-enoic acid]",100
26,"CC(=O)Nc1ccn(-c2nc(Nc3ccc(F)c(Cl)c3)ncc2-c2cccc(/C=C/C(=O)O)c2)n1 [Example 566, (2E)-3-(3-{4-[3-(acetylamino)-1H-pyrazol-1-yl]-2-[(3-chloro-4-fluorophenyl)amino]pyrimidin-5-yl}phenyl)prop-2-enoic acid]",52
27,"O=C(O)/C=C/c1cccc(-c2cnc(Nc3ccc(F)c(Cl)c3)nc2-n2cc(-c3ccccn3)cn2)c1 [Example 567, (2E)-3-(3-{2-[(3-chloro-4-fluorophenyl)amino]-4-[4-(pyridin-2-yl)-1H-pyrazol-1-yl]pyrimidin-5-yl}phenyl)prop-2-enoic acid]",100
28,"O=C(O)/C=C/c1cccc(-c2cnc(Nc3ccc(F)c(Cl)c3)nc2-n2cc(-c3ccncn3)cn2)c1 [Example 568, (2E)-3-(3-{2-[(3-chloro-4-fluorophenyl)amino]-4-[4-(pyrimidin-4-yl)-1H-pyrazol-1-yl]pyrimidin-5-yl}phenyl)prop-2-enoic acid]",100
29,"O=C(O)c1cccc(-c2cnc(Nc3ccc(F)c(Cl)c3)nc2-n2ccc(C(F)(F)F)n2)c1 [Example 570, 3-(2-(3-chloro-4-fluorophenylamino)-4-(3-(trifluoromethyl)-1H-pyrazol-1-yl)pyrimidin-5-yl)benzoic acid]",91
30,"CC1(C)[C@@H](C(=O)O)[C@@H]1c1cccc(-c2cnc(Nc3ccc(F)cc3)nc2-n2ccc(C(F)(F)F)n2)c1 [Example 571, (1,3-trans)-3-(3-(2-(4-fluorophenylamino)-4-(3-(trifluoromethyl)-1H-pyrazol-1-yl)pyrimidin-5-yl)phenyl)-2,2-dimethylcyclopropanecarboxylic acid]",17
